Test results taken from the NIST ThermoML archive (doi:10.1021/je700260f).
Where “and” joins values, the source holds several entries; their conditions need not be identical. Identical values can stand only once.

Conditions: Liquid, Vibrating tube method

FC(C(F)(F)F)C(F)(F)F [1,1,1,2,3,3,3-heptafluoropropane]
Conditions	mass density
283.14 K, 31470 kPa	1570.9 kg/m3
283.14 K, 31923 kPa	1572.2 kg/m3
283.14 K, 31954 kPa	1572.2 kg/m3
283.14 K, 31990 kPa	1572.3 kg/m3
283.14 K, 32053 kPa	1572.5 kg/m3
283.14 K, 32196 kPa	1572.9 kg/m3
283.14 K, 32239 kPa	1573 kg/m3
283.14 K, 32276 kPa	1573 kg/m3
283.14 K, 32317 kPa	1573.1 kg/m3
283.14 K, 32360 kPa	1573.2 kg/m3
283.14 K, 32439 kPa	1573.5 kg/m3
283.14 K, 32476 kPa	1573.6 kg/m3
283.14 K, 32513 kPa	1573.7 kg/m3
283.14 K, 32546 kPa	1573.8 kg/m3
283.14 K, 32585 kPa	1573.8 kg/m3
283.14 K, 32618 kPa	1574 kg/m3
283.14 K, 32651 kPa	1574 kg/m3
283.14 K, 32687 kPa	1574.2 kg/m3
283.14 K, 32724 kPa	1574.4 kg/m3
283.14 K, 32761 kPa	1574.4 kg/m3
283.14 K, 32793 kPa	1574.4 kg/m3
283.14 K, 32841 kPa	1574.7 kg/m3
283.14 K, 32986 kPa	1574.9 kg/m3
283.14 K, 33019 kPa	1575.2 kg/m3
283.14 K, 33051 kPa	1575.2 kg/m3
283.14 K, 33098 kPa	1575.1 kg/m3
283.14 K, 33128 kPa	1575.4 kg/m3
283.14 K, 33158 kPa	1575.5 kg/m3
283.14 K, 33205 kPa	1575.6 kg/m3
283.14 K, 33237 kPa	1575.7 kg/m3
283.14 K, 33312 kPa	1575.9 kg/m3
283.15 K, 461 kPa	1449.6 kg/m3 and 1449.7 kg/m3 and 1449.5 kg/m3
283.15 K, 462 kPa	1449.6 kg/m3 and 1449.5 kg/m3 and 1449.7 kg/m3
283.15 K, 463 kPa	1449.6 kg/m3
283.15 K, 465 kPa	1449.6 kg/m3
283.15 K, 485 kPa	1449.7 kg/m3
283.15 K, 513 kPa	1449.9 kg/m3
283.15 K, 538 kPa	1450.1 kg/m3
283.15 K, 571 kPa	1450.2 kg/m3
283.15 K, 601 kPa	1450.5 kg/m3
283.15 K, 635 kPa	1450.8 kg/m3
283.15 K, 666 kPa	1450.9 kg/m3
283.15 K, 696 kPa	1451.1 kg/m3
283.15 K, 723 kPa	1451.2 kg/m3
283.15 K, 745 kPa	1451.3 kg/m3
283.15 K, 785 kPa	1451.6 kg/m3
283.15 K, 825 kPa	1451.8 kg/m3
283.15 K, 870 kPa	1452 kg/m3
283.15 K, 902 kPa	1452.3 kg/m3
283.15 K, 2647 kPa	1462.4 kg/m3
283.15 K, 2695 kPa	1462.6 kg/m3
283.15 K, 2733 kPa	1462.7 kg/m3
283.15 K, 2772 kPa	1462.9 kg/m3
283.15 K, 2817 kPa	1463.3 kg/m3
283.15 K, 2855 kPa	1463.4 kg/m3
283.15 K, 2910 kPa	1463.7 kg/m3
283.15 K, 2943 kPa	1464 kg/m3
283.15 K, 2982 kPa	1464.2 kg/m3
283.15 K, 3012 kPa	1464.3 kg/m3
283.15 K, 3043 kPa	1464.5 kg/m3
283.15 K, 3065 kPa	1464.6 kg/m3
283.15 K, 3097 kPa	1464.7 kg/m3
283.15 K, 3117 kPa	1464.9 kg/m3
283.15 K, 3653 kPa	1467.8 kg/m3
283.15 K, 3681 kPa	1467.9 kg/m3
283.15 K, 3713 kPa	1468.1 kg/m3
283.15 K, 3737 kPa	1468.2 kg/m3
283.15 K, 3764 kPa	1468.5 kg/m3
283.15 K, 3789 kPa	1468.4 kg/m3
283.15 K, 3818 kPa	1468.6 kg/m3
283.15 K, 3851 kPa	1468.8 kg/m3
283.15 K, 3880 kPa	1469 kg/m3
283.15 K, 3906 kPa	1469.1 kg/m3
283.15 K, 3935 kPa	1469.3 kg/m3
283.15 K, 3961 kPa	1469.4 kg/m3
283.15 K, 4806 kPa	1473.8 kg/m3
283.15 K, 4895 kPa	1474.2 kg/m3
283.15 K, 4922 kPa	1474.4 kg/m3
283.15 K, 4945 kPa	1474.4 kg/m3
283.15 K, 5000 kPa	1474.7 kg/m3
283.15 K, 5032 kPa	1474.9 kg/m3
283.15 K, 5060 kPa	1475.1 kg/m3
283.15 K, 5088 kPa	1475.3 kg/m3
283.15 K, 5115 kPa	1475.2 kg/m3
283.15 K, 5147 kPa	1475.5 kg/m3
283.15 K, 5176 kPa	1475.7 kg/m3
283.15 K, 5204 kPa	1475.8 kg/m3
283.15 K, 5232 kPa	1476 kg/m3
283.15 K, 5260 kPa	1476.1 kg/m3
283.15 K, 5284 kPa	1476.2 kg/m3
283.15 K, 5323 kPa	1476.4 kg/m3
283.15 K, 5350 kPa	1476.5 kg/m3
283.15 K, 5373 kPa	1476.8 kg/m3
283.15 K, 5402 kPa	1476.8 kg/m3
283.15 K, 5425 kPa	1477 kg/m3
283.15 K, 5522 kPa	1477.4 kg/m3
283.15 K, 5563 kPa	1477.6 kg/m3
283.15 K, 5594 kPa	1477.8 kg/m3
283.15 K, 5634 kPa	1478 kg/m3
283.15 K, 5666 kPa	1478.1 kg/m3
283.15 K, 6204 kPa	1480.7 kg/m3
283.15 K, 6271 kPa	1480.9 kg/m3
